Source: patent US9968698B2, “Charged singlet-oxygen sensitizers and oppositely-charged surfactants” (STC.UNM, priority 2013, dated 2018)
“And” between values parts separate entries of the source, which are not always exact repeats. Identical values can stand only once.

Legend:
E. coli [1] = assay: Confocal fluorescence microscopy of exposed bacteria, Example 2; type: cell-based, Escherichia coli; conditions: UVA, versus untreated cells, FIG. 20
[2] = UVA photolysis under the same conditions, without surfactant; cited from earlier work
E. coli (ATCC 29425) = assay: Live/dead flow cytometry biocidal assay with samples UVA pre-irradiated before bacterial exposure, Example 2; type: cell-based, Escherichia coli; conditions: for biocidal activity vs. E. coli after pre-irradiation: then 30 minutes UVA with bacteria
Method: (§1) All media and buffers were prepared using deionized water with a resistivity exceeding 18 MΩ*cm. Nutrient Broth 234000 (Difco) was prepared according to manufacturer's instructions, and Nutrient Agar was prepared upon the addition of 8 g/L Bacto agar (Difco). Both S. aureus (ATCC 25923) and E. coli (ATCC 29425) were grown from glycerol-preserved stock. The frozen stock aliquots were generated from first-generation cultures of the original ATCC lyophilate, which were grown in Nutrient Broth containing 20% glycerol, and subsequently stored at −70° C. The cells were grown by inoculating the glycerol stock on Difco Nutrient Agar for 24 hours at 37° Celsius. For biocidal testing, S. aureus and E. coli cells were scraped off the agar plate with a flame-sterilized wire and transferred to nutrient broth. Cells were incubated in an Orbital Incubator Shaker (American Instruments, Lafayette, Calif.) at 37° Celsius in nutrient broth with rapid shaking (250 rpm) for 18 hours. Following the 18-hour incubation period, cells were separated from the nutrient broth by two 15-minute centrifugations at 4,400 rpm, each of which was followed by removal of the supernatant and re-suspension in 30 mL 0.85% NaCl.
(§2) Flow cytometry was implemented to determine the cell concentration of the 0.85% NaCl-suspended bacterial stock solutions. An Accuri C6 flow cytometer (Becton Dickinson, Franklin Lakes, N.J.) equipped with a blue laser that excites at 488 nm was utilized. Two filters were used: a green fluorescence filter (FL-1: 530 nm) and a red fluorescence filter (FL-3: 670 nm long pass). Two thresholds were used, a primary threshold and a secondary threshold. […] Flow cytometer core size in all experiments was 10 μm, with a flow rate of 14 μL/minute. Using these settings, 20 μL of un-stained stock solution was sufficient for identifying the stock concentration of cells.
For biocidal testing, the stock solution was either diluted or concentrated to 2×10^7 cells/mL. Equal volumes of the sample and bacterial solution were added to glass tubes prior to analysis. Cells were stained with 5 mM SYTO 21 (live stain; Life Technologies, Grand Island, N.Y.) and […] Propidium iodide (dead stain; Life Technologies, Grand Island, N.Y.) for 15-30 minutes prior to flow cytometry anaylsis. An example of the flow cytometry gating scheme for E. coli is shown below, in FIG. 14. […]
(§3) The solid compound OPE 1, as a dichloride salt, was dissolved in filtered water with a resistivity of 18 MΩ*cm to a final concentration of 10 μM. […] Progress of the photolysis was monitored by UV-visible absorption spectroscopy with a Molecular Devices Spectramax M5 spectrophotometer (Molecular Devices, Sunnyvale, Calif.). […]

S. aureus (ATCC 25923) = assay: as above; type: cell-based, Staphylococcus aureus; conditions: for biocidal activity vs. S. aureus after pre-irradiation: then 15 minutes UVA with bacteria
Method: as §1
as §2, with “Using these settings, 20 μL of un-stained stock solution was sufficient for identifying the stock concentration of cells.” left out
as §3

S. aureus [3] = assay: Confocal microscopy of bacteria irradiated with UVA for 15 minutes, Example 2; type: cell-based, Staphylococcus aureus; conditions: UVA light for 15 minutes, FIG. 22
Method: The solid compound OPE 1, as a dichloride salt, was dissolved in filtered water with a resistivity of 18 MΩ*cm to a final concentration of 10 μM. The solution was then exposed to UVA radiation via a Luzchem LZC-ORG photoreactor (Luzchem Research, Ontario, Canada) in a quartz tube or cuvette. This photoreactor was configured with 10 LZC-UVA lamps (>5.3 mW-cm^−2 over 316-400 nm, Luzchem Research, Ontario, Canada) with a fan-powered exhaust to keep a stable temperature and a carousel for homogeneous irradiation of samples. Progress of the photolysis was monitored by UV-visible absorption spectroscopy with a Molecular Devices Spectramax M5 spectrophotometer (Molecular Devices, Sunnyvale, Calif.). Sodium dodecyl sulfate (SDS) was obtained from Sigma Aldrich. For the OPE 1-SDS complexes, 10 μM OPE 1 was mixed with 40 μM SDS, 0.24% of the critical micelle concentration (CMC). S. aureus samples were exposed to a OPE 1-SDS complex where the concentration of SDS was 0.33 mM, as they were much more resilient to killing caused by SDS. Samples were irradiated for 0, 30, 60, and 120 minutes prior to exposure to bacteria. Once exposed to OPE 1 or 1-SDS complex, E. coli and S. aureus samples were irradiated with UVA in the photoreactor for 30 minutes and 15 minutes, respectively.

[4] = system: Staphylococcus aureus (ATCC 10832); assay: Live/dead flow cytometry biocidal assay, Example 1; type: cell-based; conditions: 60 minutes, 10 μM OPE
Method: All media and buffers were prepared with deionized water with a resistivity of at least 18 MΩ cm. Nutrient broth 234000 (Difco) was prepared according to manufacturer's instructions. Nutrient agar was prepared upon the addition of 8 g/L bacto agar (Difco). Staphylococcus aureus (ATCC 10832) and Escherichia coli (ATCC 29425) were both grown from glycerol-preserved stock which originated from first-generation cultures of original ATCC lyophilates grown in nutrient broth (containing 20% glycerol) and subsequently stored at −70° C. Cells of the aforementioned strains were grown upon the inoculation of glycerol stock on Difco nutrient agar at 37° C. for 24 hours. […]
The bacterial stock solution was either diluted or concentrated to 2×10^7 cells/mL. […] Biocidal activity under UVA irradiation was determined using a Luzchem LZC-ORG photoreactor (Luzchem Research, Ontario, Canada). […]
Flow cytometry gating and analysis were carried out as performed in previous studies of biocidal activity of OPEs (see Z. Malik, J. Hanania, Y. Nitzan New trends in photobiology bactericidal effects of photoactivated porphyrins—An alternative approach to antimicrobial drugs, Journal of Photochemistry and Photobiology B: Biology 1990, 5 (3-4), 281-293). […] 100,000 events were recorded in each sample. […]

[5] = system: Staphylococcus aureus (ATCC 10832); assay: Biocidal testing by standard plating (colony counts relative to UVA negative control), Example 1; type: cell-based; conditions: FIG. 4
Method: (§4) All media and buffers were prepared with deionized water with a resistivity of at least 18 MΩ cm. Nutrient broth 234000 (Difco) was prepared according to manufacturer's instructions. Nutrient agar was prepared upon the addition of 8 g/L bacto agar (Difco). Staphylococcus aureus (ATCC 10832) and Escherichia coli (ATCC 29425) were both grown from glycerol-preserved stock which originated from first-generation cultures of original ATCC lyophilates grown in nutrient broth (containing 20% glycerol) and subsequently stored at −70° C. Cells of the aforementioned strains were grown upon the inoculation of glycerol stock on Difco nutrient agar at 37° C. for 24 hours. Cell culture preparation for biocidal testing entailed scraping S. aureus or E. coli colonies off their agar plates and transferring them to nutrient broth for growth. Cells were then incubated in an Orbital Incubator Shaker (American Instruments, Lafayette, Calif.) for 18 h at 37° C. with rapid shaking (250 rpm). Following the incubation period, cells were washed by two 15 min centrifugations at 4,400 rpm; in each case, supernatant was replaced by 30 mL of 0.85% NaCl following pellet formation.
(§5) The bacterial stock solution was either diluted or concentrated to 2×10^7 cells/mL. Samples were diluted by the addition of 0.85% NaCl, while concentrating the sample entailed centrifugation to pellet the cells, followed by removal of the necessary amount of supernatant and subsequent resuspension of the pellet by vortexing. 500 μL of bacterial solution was added to glass vials with 500 μL of sample solution to reach a final volume of 1 mL prior to analysis. Samples tested contained 10 μM OPE, 40 μM TTAB, or both 10 μM OPE and 40 μM TTAB. Biocidal activity under UVA irradiation was determined using a Luzchem LZC-ORG photoreactor (Luzchem Research, Ontario, Canada). This photoreactor was configured with 10 UVA lamps (0.975 mW/cm^2 over 316-400 nm) with a fan-powered exhaust to keep a stable temperature of 28° C. and a rotating carousel for homogeneous irradiation of samples. Samples exposed in the dark were kept at room temperature, 25° C. 70% Ethanol was used as a positive control, and a 60 minute UVA-irradiated sample of bacteria was used as a negative control.
(§6) The results of the live/dead assay were verified by confocal fluorescence microscopy using a Zeiss Confocal microscope with an Ar laser (488 nm) and a HeNe laser ([…]) as excitation sources. Standard plating techniques were utilized to validate flow cytometry data. This entailed pipetting and spreading 50 μL aliquots of diluted, unstained sample, onto nutrient agar plates. The plates were incubated at 37° C. for 18 hours, colonies were counted, and viabilities were calculated relative to the UVA negative control. […]

[6] = in water; cited from earlier work
E. coli [7] = conditions: reported value, against E. coli; cited from earlier work
S. aureus [8] = conditions: reported value, against S. aureus; cited from earlier work
[9] = system: Escherichia coli (ATCC 29425); assay: Biocidal testing by standard plating (colony counts relative to UVA negative control), Example 1; type: cell-based; conditions: 40 μM TTAB alone, one hour of exposure, FIG. 5
Method: as §4, §5, §6

[10] = 10 μM OPE 1, 30 minutes of UVA irradiation prior to bacterial exposure
[11] = 10 μM OPE 1, 2 hours of UVA pre-exposure
[12] = 0.33 mM SDS alone, control experiment

For C[N+](C)(C)CCOc1ccc(C#Cc2ccc(C#Cc3ccc(OCC[N+](C)(C)C)cc3)cc2)cc1 [OPE 1], the “filamentous growth of E. coli (stress response)” value (E. coli [1]) is listed as “more likely to undergo filamentous growth than untreated cells”, the “time of photolysis until absorbance diminished and fluorescence completely quenched” value [2] is listed as ≤ 2 min and the “biocidal activity vs. E. coli after pre-irradiation” value (E. coli (ATCC 29425); [10]) is listed as “significant drop in biocidal activity”. For the same compound, the “biocidal activity vs. E. coli after pre-irradiation” value (E. coli (ATCC 29425); [11]) was “nearly lost”, the “biocidal activity vs. S. aureus after pre-irradiation” value (S. aureus (ATCC 25923); [10]) was “significant drop in biocidal activity” and the “biocidal activity vs. S. aureus after pre-irradiation” value (S. aureus (ATCC 25923); [11]) was “entirely lost”. For the same compound, the “clustering of S. Aureus (stress response)” value (S. aureus [3]) was “clusters of large numbers of cells”.
For O=S(=O)(O)CCCOc1ccc(C#Cc2ccc(C#Cc3ccc(OCCCS(=O)(=O)O)cc3)cc2)cc1 [OPE], the “S. aureus killed (immediate killing by flow cytometry)” value ([4]; in the dark) was 23.2%, the “S. aureus killed (immediate killing by flow cytometry)” value ([4]; under UVA irradiation) was 35.1% and the S. aureus killed ([5]; in the dark, 60 minutes, 10 μM OPE (complex: plus 40 μM TTAB)) was 41.3%. The S. aureus killed ([5]; in the light (UVA), 60 minutes, 10 μM OPE (complex: plus 40 μM TTAB)) was 68.1%.
In the case of CCCCCCCCCCCCOS(=O)(=O)[O-].[Na+] [SDS, sodium dodecyl sulfate], the “E. coli cells killed” value (E. coli (ATCC 29425); 40 μM SDS alone, control experiment) is reported as ~40%, the “effect on E. coli” value (E. coli (ATCC 29425); [12]) is reported as “significant killing” and the “effect on S. aureus” value (S. aureus (ATCC 25923); [12]) is reported as “viable”. The critical micelle concentration [6] was ~8.3 mM.
In the case of CCCCCCCCCCCCCC[N+](C)(C)C.[Br-] [TTAB, tetradecyl trimethylammonium bromide], the minimum inhibitory concentration (E. coli [7]) is given as 5 mM, the minimum inhibitory concentration (S. aureus [8]) is given as 5 mM and the critical micelle concentration [6] is given as 4.3 mM. For the same compound, the S. aureus killed ([5]; 40 μM TTAB alone, one hour of exposure) was 8.7% and 9% and the E. coli killed [9] was 56.1% and 56%.
